Assay results taken from PubChem BioAssay AID248 (DTP/NCI, 2004).
Values joined by “and” are separate entries in the source; they are usually repeats but may differ in a detail not shown here. Equal values may be shown once. Inconclusive results and toxic doses are left out. Rule as the data show it: active = T/C of 150% or more; inactive = T/C below 125%.

Test system: L1210 leukemia ip in BDF1 mice, survival T/C
Test: NCI In Vivo Anticancer Drug Screen. Data for tumor model L1210 Leukemia (intraperitoneal) in B6D2F1 (BDF1) mice
Conditions: endpoint: mean survival time, higher = longer survival
Outline: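 Tumor cells were implanted, animals were treated, and survival was followed. The result divides the treated measurement by the vehicle-control measurement.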

[1] = dose: 100.0 mg/kg/injection, schedule: Q01DX001 (ip), vehicle: saline
[2] = dose: 200.0 mg/kg/injection, schedule: Q01DX001 (ip), vehicle: saline
[3] = dose: 400.0 mg/kg/injection, schedule: Q01DX001 (ip), vehicle: saline
[4] = dose: 100.0 mg/kg/injection, schedule: Q01DX001 (ip), vehicle: other
[5] = dose: 200.0 mg/kg/injection, schedule: Q01DX001 (ip), vehicle: other
[6] = dose: 400.0 mg/kg/injection, schedule: Q01DX001 (ip), vehicle: other
[7] = dose: 100.0 mg/kg/injection, schedule: Q01DX001 (ip), vehicle: carboxymethylcellulose (CMC)
[8] = dose: 200.0 mg/kg/injection, schedule: Q01DX001 (ip), vehicle: carboxymethylcellulose (CMC)
[9] = dose: 400.0 mg/kg/injection, schedule: Q01DX001 (ip), vehicle: carboxymethylcellulose (CMC)
[10] = dose: 25.0 mg/kg/injection, schedule: Q01DX009 (ip), vehicle: saline with Tween-80
[11] = dose: 100.0 mg/kg/injection, schedule: Q01DX009 (ip), vehicle: saline with Tween-80

Measured: T/C

COC(=O)Cc1c[nH]c(=O)[nH]c1=O
inactive: dose: 100.0 mg/kg/injection, schedule: Q01DX009 (ip), vehicle: water 102 % of control | dose: 100.0 mg/kg/injection, schedule: Q04DX003 (ip), vehicle: water 93 % of control | dose: 200.0 mg/kg/injection, schedule: Q01DX009 (ip), vehicle: water 98 % of control | dose: 200.0 mg/kg/injection, schedule: Q04DX003 (ip), vehicle: water 104 % of control | dose: 400.0 mg/kg/injection, schedule: Q04DX003 (ip), vehicle: water 95 % of control

CCCCCCCCCCCCCCCCC[As](=O)(O)CCCCCCCCCCCCCCCCC
inactive: dose: 50.0 mg/kg/injection, schedule: Q01DX001 (ip), vehicle: saline 101 % of control | [1] 95 % of control | [2] 89 % of control | [3] 97 % of control

O=C1C=C(Nc2ccc(Cl)cc2)c2ccccc2C1=O
inactive: [4] 98 % of control | [5] 90 % of control | [6] 95 % of control

O=C(N/N=C/c1ccc(Cl)cc1Cl)C(O)(c1ccccc1)c1ccccc1
inactive: [7] 111 % of control | [8] 101 % of control | [9] 92 % of control

CN(C)C(=O)C(=O)c1cn(C)c2ccccc12
inactive: dose: 50.0 mg/kg/injection, schedule: Q01DX001 (ip), vehicle: carboxymethylcellulose (CMC) 95 % of control | [7] 109 % of control | [8] 93 % of control | [9] 101 % of control

Brc1ccc(S/C=C/c2ccccc2)cc1
inactive: [1] 112 % of control | [2] 102 % of control | [3] 101 % of control

NC1=NC(CCc2ccccc2)N(c2ccc(Cl)cc2)C(N)=N1 (stereo not drawn)
inactive: dose: 14.0 mg/kg/injection, schedule: Q01DX009 (ip), vehicle: steriod suspending solution 98 % of control | dose: 24.0 mg/kg/injection, schedule: Q01DX009 (ip), vehicle: steriod suspending solution 97 % of control | dose: 39.0 mg/kg/injection, schedule: Q01DX009 (ip), vehicle: steriod suspending solution 100 % of control | dose: 65.0 mg/kg/injection, schedule: Q01DX009 (ip), vehicle: steriod suspending solution 100 % of control

O=C1NC(c2ccccc2)(c2ccccc2)C(=O)N1CCN(CCCl)CCCl
inactive: dose: 12.5 mg/kg/injection, schedule: Q01DX009 (ip), vehicle: saline with Tween-80 116 % of control | [10] 102 % of control | dose: 50.0 mg/kg/injection, schedule: Q04DX003 (ip), vehicle: saline with Tween-80 105 % of control | [11] 121 % of control | dose: 100.0 mg/kg/injection, schedule: Q04DX003 (ip), vehicle: saline with Tween-80 116 % of control and 121 % of control

N#Cc1c(F)c(F)c(C(F)(F)F)c(F)c1F
inactive: dose: 6.0 mg/kg/injection, schedule: Q01DX009 (ip), vehicle: saline with Tween-80 103 % of control | dose: 12.0 mg/kg/injection, schedule: Q01DX009 (ip), vehicle: saline with Tween-80 104 % of control | [10] 93 % of control | dose: 50.0 mg/kg/injection, schedule: Q01DX009 (ip), vehicle: other 103 % of control

COC(=O)C1CCCN(C)C1c1c[nH]c2ccccc12 (stereo not drawn)
inactive: dose: 75.0 mg/kg/injection, schedule: Q01DX001 (ip), vehicle: other 90 % of control | dose: 150.0 mg/kg/injection, schedule: Q01DX001 (ip), vehicle: other 106 % of control

C=C(CCCC)c1ccccc1
inactive: dose: 50.0 mg/kg/injection, schedule: Q01DX009 (ip), vehicle: saline with Tween-80 102 % of control | [11] 91 % of control | dose: 200.0 mg/kg/injection, schedule: Q01DX009 (ip), vehicle: saline with Tween-80 94 % of control

C1CCC(C2CCC(C3CCCC3)C2)C1 (stereo not drawn)
inactive: dose: 100.0 mg/kg/injection, schedule: Q04DX002 (ip), vehicle: saline with Tween-80 91 % of control | dose: 200.0 mg/kg/injection, schedule: Q04DX002 (ip), vehicle: saline with Tween-80 94 % of control | dose: 400.0 mg/kg/injection, schedule: Q04DX002 (ip), vehicle: saline with Tween-80 91 % of control

Cc1nc2[nH]c(=O)[nH]c(=O)c2nc1C
inactive: dose: 16.0 mg/kg/injection, schedule: Q01DX Z (ip), vehicle: methylcellulose (MC) 100 % of control | dose: 31.0 mg/kg/injection, schedule: Q01DX Z (ip), vehicle: methylcellulose (MC) 95 % of control | dose: 62.0 mg/kg/injection, schedule: Q01DX Z (ip), vehicle: methylcellulose (MC) 87 % of control | [4] 104 % of control | dose: 100.0 mg/kg/injection, schedule: Q04DX003 (ip), vehicle: other 96 % of control | dose: 125.0 mg/kg/injection, schedule: Q01DX Z (ip), vehicle: methylcellulose (MC) 92 % of control and 93 % of control | [5] 107 % of control | dose: 200.0 mg/kg/injection, schedule: Q04DX003 (ip), vehicle: other 104 % of control | dose: 250.0 mg/kg/injection, schedule: Q01DX Z (ip), vehicle: methylcellulose (MC) 89 % of control | [6] 102 % of control | dose: 400.0 mg/kg/injection, schedule: Q04DX003 (ip), vehicle: other 96 % of control | dose: 500.0 mg/kg/injection, schedule: Q01DX Z (ip), vehicle: methylcellulose (MC) 89 % of control

CC(C)C(=O)NC1CCCCC1
inactive: dose: 25.0 mg/kg/injection, schedule: Q04DX002 (ip), vehicle: Klucel (hydroxypropylcellulose) (HPC) 111 % of control | dose: 50.0 mg/kg/injection, schedule: Q04DX002 (ip), vehicle: Klucel (hydroxypropylcellulose) (HPC) 111 % of control | dose: 100.0 mg/kg/injection, schedule: Q04DX002 (ip), vehicle: Klucel (hydroxypropylcellulose) (HPC) 101 % of control
